Assay results as given in the supplement of paper PMC13380429.

Key:
Details in all cases: 72 h
Calu-3 [1] = assay: drug sensitivity score (DSS) for viability; higher = more toxic; extreme values may be limits of the assay
U2OS [2] = assay: as above
Caco-2 [3] = assay: as above
HepG2 [4] = assay: as above
Vero E6 [5] = assay: as above
Calu-3 [6] = assay: cell viability relative to DMSO; higher = less toxic
U2OS [7] = assay: as above
Caco-2 [8] = assay: as above
HepG2 [9] = assay: as above
Vero E6 [10] = assay: as above
U2OS [11] = assay: relative viability EC50 (midpoint between 100% and the lowest measured viability); higher = less toxic
Caco-2 [12] = assay: as above
HepG2 [13] = assay: as above
Vero E6 [14] = assay: as above
Calu-3 [15] = assay: as above

SMILES	drug sensitivity score (Calu-3 [1])	drug sensitivity score (U2OS [2])	drug sensitivity score (Caco-2 [3])	drug sensitivity score (HepG2 [4])	drug sensitivity score (Vero E6 [5])	cell viability (Calu-3 [6]; 1 nM) [%]	cell viability (Calu-3 [6]; 10 nM) [%]	cell viability (Calu-3 [6]; 100 nM) [%]	cell viability (Calu-3 [6]; 1000 nM) [%]	cell viability (Calu-3 [6]; 10000 nM) [%]	cell viability (U2OS [7]; 1 nM) [%]	cell viability (U2OS [7]; 10 nM) [%]	cell viability (U2OS [7]; 100 nM) [%]	cell viability (U2OS [7]; 1000 nM) [%]	cell viability (U2OS [7]; 10000 nM) [%]	cell viability (Caco-2 [8]; 1 nM) [%]	cell viability (Caco-2 [8]; 10 nM) [%]	cell viability (Caco-2 [8]; 100 nM) [%]	cell viability (Caco-2 [8]; 1000 nM) [%]	cell viability (Caco-2 [8]; 10000 nM) [%]	cell viability (HepG2 [9]; 1 nM) [%]	cell viability (HepG2 [9]; 10 nM) [%]	cell viability (HepG2 [9]; 100 nM) [%]	cell viability (HepG2 [9]; 1000 nM) [%]	cell viability (HepG2 [9]; 10000 nM) [%]	cell viability (Vero E6 [10]; 1 nM) [%]	cell viability (Vero E6 [10]; 10 nM) [%]	cell viability (Vero E6 [10]; 100 nM) [%]	cell viability (Vero E6 [10]; 1000 nM) [%]	cell viability (Vero E6 [10]; 10000 nM) [%]	relative viability EC50 (U2OS [11]) [µM]	relative viability EC50 (Caco-2 [12]) [µM]	relative viability EC50 (HepG2 [13]) [µM]	relative viability EC50 (Vero E6 [14]) [µM]	relative viability EC50 (Calu-3 [15]) [µM]
COc1ccc(-n2c(SCc3nc(-c4ccc(C)cc4)no3)nnc2-c2ccncc2)cc1 [JW-74]	0.9	1	0.1	0	3	95.1	106	109	107	70.8	96.4	98.3	97	96	81.4	111	114	110	100	86.9	99.7	101	96.2	95.3	93.3	108	105	107	88.7	68.2	> 10	> 10	> 10		
Cc1nc2ccccn2c(=O)c1CCN1CCC(C(=O)c2ccc(F)cc2)CC1 [pirenperone]		0	0	0	0						106	106	103	99.2	103	103	101	99.5	90.6	106	110	113	108	99.2	90.2	92.6	101	95.6	100	97.2	> 10	> 10	> 10	> 10	
C=C[C@](C)(O)CC[C@@H]1[C@@]2(C)CCCC(C)(C)[C@@H]2CC[C@@]1(C)O [sclareol]	0	0	0		0	101	98.7	98.7	104	94.4	107	96.6	96.4	98.8	94.6	101	98.8	99.7	102	87.6						101	100	102	99.6	104	> 10	> 10		> 10	> 10
CN(C)NC(=O)CCC(=O)O [daminozide]		0	0	0	0						97.8	97.8	95	101	101	93.5	96.3	96.5	98.3	100	103	96.4	102	102	103	94.6	98.2	97.1	98.3	103	> 10	> 10	> 10	> 10	
C[C@@H](O)[C@H]1C(=O)N2C(C(=O)[O-])=C(SC3Cn4cnc[n+]4C3)[C@H](C)[C@H]12 (stereo partly drawn) [biapenem]		0	0	0	0						98.6	104	96.3	97.1	100	86.6	104	96.3	93.3	97.3	97.1	98	93.3	90.7	95.2	98.1	100	94.7	103	99.8	> 10	> 10	> 10	> 10	
CC(C)[C@@H]1CC[C@@H](C)C[C@@H]1P(=O)(c1ccccc1)c1ccccc1 [DPO-1]	0	0	1.2		0	95.9	98.4	96.7	93.7	94.1	98.5	100	97.3	102	93.7	100	102	98.7	96.6	78						112	105	110	96.6	105	> 10	> 10		> 10	> 10
CCCCCCCC/C=C\CCCCCCCC(=O)NCCc1ccc(O)c(O)c1 [OLDA]	0	4.9	3.2	2	2	105	98.6	97.9	103	104	101	99.1	98.3	94.6	25.9	98.1	90.4	96.7	92	61.9	98.1	107	100	103	56.3	106	101	99	99.2	61.7	2.58				> 10
NCCS [cysteamine]	0	0	0		0	87.7	100	98.3	99.1	102	102	102	95.1	99.7	97.4	102	108	104	100	93.8						106	101	99.8	94.8	99.9	> 10	> 10		> 10	> 10
